pEC50, pIC50: −log10 of the molar value. Calls of active or inactive are those of the source. The calls are words filed in the database; no cut-off is given here.
Key:
[1] = Cytotoxicity against human HEK293 cells assessed as cell growth inhibition at 60 uM measured after 48 hrs by CCK8 assay relative to control; assay type: cell-based
[2] = Brain to blood partition coefficient of the compound; assay type: physicochemical, tissue-based; conditions: read-out: logBB (converted)
[3] = target: T1, Glutamate NMDA receptor (Mus musculus) (UniProt P35436+Q91ZU9+Q03391+P35438+Q01097+Q01098+A2AIR5); assay: Positive allosteric modulation of C57BL/6 mouse NMDA receptor assessed as fold change in compound potentiated NMDA-induced current relative to NMDA current alone at 30 uM measured after 15 to 30 mins by patch-clamp method; assay type: tissue-based; conditions: Brain, filed as positive allosteric modulator, time 15-30 min
[4] = Cytotoxicity against mouse L929 cells assessed as cell growth inhibition at 60 uM measured after 48 hrs by CCK8 assay relative to control; assay type: cell-based
[5] = Effect on locomotor activity in ICR mouse assessed as hypolocomotion at 10 mg/kg, ip measured after 90 mins; assay type: ADME, organism-based; conditions: in vivo, 1.5 h
Mus musculus [6] = assay: Antidepressant activity in ICR mouse assessed as decrease in immobility time at 3 to 10 mg/kg, ip measured after 26 mins by forced swim test; assay type: functional, organism-based; conditions: dose 3-10 mg/kg
hERG (KCNH2) [7] = target: T2, hERG (KCNH2) (Homo sapiens, UniProt Q12809); assay: Inhibition of human ERG expressed in CHO cells at 100 uM with holding potential at -80 to -60 mV for 500s followed by raise in potential at +30 mV for 2 sec and subsequent repolarization to -60 mV for 2 sec by whole-cell patch clamp method relative to control; assay type: cell-based; conditions: CHO cells expressing human ERG
hERG (KCNH2) [8] = target: T2, hERG (KCNH2); assay: Inhibition of human ERG expressed in CHO cells at 30 uM with holding potential at -80 to -60 mV for 500s followed by raise in potential at +30 mV for 2 sec and subsequent repolarization to -60 mV for 2 sec by whole-cell patch clamp method relative to control; assay type: cell-based; conditions: CHO cells expressing human ERG
[9] = target: T1, Glutamate NMDA receptor (Mus musculus); assay: Positive allosteric modulation of C57BL/6 mouse NMDA receptor assessed as fold change in compound potentiated NMDA-induced current relative to NMDA current alone in presence of saturating glutamate by patch-clamp method; assay type: tissue-based; conditions: Brain, filed as positive allosteric modulator
Glutamate NMDA receptor = assay: Positive allosteric modulation of C57BL/6 mouse NMDA receptor assessed as potentiation of NMDA-induced current in presence of saturating glutamate by patch-clamp method; assay type: tissue-based, Brain
[10] = Cytotoxicity against human HEK293 cells assessed as cell growth inhibition at 120 uM measured after 48 hrs by CCK8 assay relative to control; assay type: cell-based
[11] = Cytotoxicity against African green monkey Vero cells assessed as cell growth inhibition at 60 uM measured after 48 hrs by CCK8 assay relative to control; assay type: cell-based; conditions: chlorocebus sabaeus
Mus musculus [12] = assay: Antidepressant activity in ICR mouse assessed as decrease in immobility time at 30 mg/kg, ip measured after 26 mins by forced swim test; assay type: functional, organism-based
Mus musculus [13] = assay: Antidepressant activity in ICR mouse aassessed as inhibition of apomorphine-induced climbing behaviour at 10 mg/kg, ip administered prior to APO challenge and measured after 30 mins; assay type: functional, organism-based
[14] = Cytotoxicity against African green monkey Vero cells assessed as cell growth inhibition at 120 uM measured after 48 hrs by CCK8 assay relative to control; assay type: cell-based; conditions: chlorocebus sabaeus
[15] = Cytotoxicity against mouse L929 cells assessed as cell growth inhibition at 120 uM measured after 48 hrs by CCK8 assay relative to control; assay type: cell-based
[16] = Effect on locomotor activity in ICR mouse assessed as hyperlocomotion at 10 mg/kg, ip measured after 90 mins; assay type: ADME, organism-based; conditions: in vivo, 1.5 h
[17] = Drug concentration in ICR mouse plasma at 3 mg/kg, iv measured at 2 hrs; assay type: ADME, organism-based
HEK293 = assay: Cytotoxicity against human HEK293 cells assessed as cell growth inhibition measured after 48 hrs by CCK8 assay; assay type: cell-based; conditions: HEK293, 48 h
[18] = […] in ICR mouse assessed as change in behaviour at 30 mg/kg, po administered for 28 days; assay type: organism-based; conditions: in vivo, 672 h, time 28 day
[19] = Drug concentration in ICR mouse brain at 10 mg/kg, po measured at 0.5 hrs by LC-MS/MS analysis; assay type: ADME, organism-based; conditions: read-out: Ct
[20] = […] in ICR mouse assessed as decrease in body weight at 30 mg/kg, po administered for 28 days; assay type: organism-based; conditions: in vivo, 672 h, time 28 day
[21] = MRT in ICR mouse at 3 mg/kg, iv measured up to 24 hrs by HPLC-MS/MS analysis; assay type: ADME, organism-based; conditions: in vivo
[22] = Drug concentration in ICR mouse plasma at 3 mg/kg, iv measured at 0.5 hrs by LC-MS/MS analysis; assay type: ADME, organism-based
[23] = Half life in ICR mouse at 3 mg/kg, iv measured up to 24 hrs by HPLC-MS/MS analysis; assay type: ADME, organism-based; conditions: in vivo
[24] = Tmax in ICR mouse at 10 mg/kg, po measured up to 24 hrs by HPLC-MS/MS analysis; assay type: ADME, organism-based; conditions: in vivo
[25] = Drug concentration in ICR mouse brain at 3 mg/kg, iv measured at 0.5 hrs by LC-MS/MS analysis; assay type: ADME, organism-based; conditions: read-out: Ct
[26] = AUC (0 to t) in ICR mouse at 3 mg/kg, iv measured up to 24 hrs by HPLC-MS/MS analysis; assay type: ADME, organism-based; design: route intravenous, dose 3 mg/kg, time <=24; conditions: in vivo
[27] = Ratio of drug concentration in brain to plasma in ICR mouse at 10 mg/kg, po measured at 0.5 hrs by LC-MS/MS analysis; assay type: ADME, organism-based; conditions: read-out: BPR
[28] = Ratio of drug concentration in brain to plasma in ICR mouse at 10 mg/kg, po measured at 2 hrs by LC-MS/MS analysis; assay type: ADME, organism-based; conditions: read-out: BPR
L929 = assay: Cytotoxicity against mouse L929 cells assessed as cell growth inhibition measured after 48 hrs by CCK8 assay; assay type: cell-based; conditions: L929, 48 h
[29] = Acute toxicity in ip dosed ICR mouse assessed as lethal dose measured after 24 hrs; assay type: organism-based; conditions: in vivo
[30] = […] in ICR mouse assessed as body weight gain at 30 mg/kg, po administered for 28 days; assay type: organism-based; conditions: in vivo, 672 h, time 28 day
[31] = Volume of distribution at steady state in ICR mouse at 3 mg/kg, iv measured up to 24 hrs by HPLC-MS/MS analysis; assay type: ADME, organism-based; conditions: in vivo, read-out: Vdss
[32] = Drug concentration in ICR mouse plasma at 10 mg/kg, po measured at 2 hrs by LC-MS/MS analysis; assay type: ADME, organism-based
[33] = Drug concentration in ICR mouse brain at 3 mg/kg, iv measured at 2 hrs; assay type: ADME, organism-based; conditions: read-out: Ct
[34] = Half life in ICR mouse at 10 mg/kg, po measured up to 24 hrs by HPLC-MS/MS analysis; assay type: ADME, organism-based; conditions: in vivo
[35] = Drug concentration in ICR mouse brain at 10 mg/kg, po measured at 2 hrs by LC-MS/MS analysis; assay type: ADME, organism-based; conditions: read-out: Ct
[36] = Drug concentration in ICR mouse plasma at 10 mg/kg, po measured at 0.5 hrs by LC-MS/MS analysis; assay type: ADME, organism-based
[37] = AUC (0 to t) in ICR mouse at 10 mg/kg, po measured up to 24 hrs by HPLC-MS/MS analysis; assay type: ADME, organism-based; design: route oral, dose 10 mg/kg, time <=24; conditions: in vivo
[38] = Oral bioavailability in ICR mouse at 10 mg/kg measured up to 24 hrs by HPLC-MS/MS analysis; assay type: ADME, organism-based; conditions: in vivo
Vero = assay: Cytotoxicity against African green monkey Vero cells assessed as cell growth inhibition measured after 48 hrs by CCK8 assay; assay type: cell-based; conditions: Chlorocebus sabaeus
[39] = Ratio of drug concentration in brain to plasma in ICR mouse at 3 mg/kg, iv measured at 2 hrs by LC-MS/MS analysis; assay type: ADME, organism-based; conditions: read-out: BPR
[40] = Cmax in ICR mouse at 10 mg/kg, po measured up to 24 hrs by HPLC-MS/MS analysis; assay type: ADME, organism-based; design: route oral, dose 10 mg/kg, time <=24; conditions: in vivo
[41] = Ratio of drug concentration in brain to plasma in ICR mouse at 3 mg/kg, iv measured at 0.5 hrs by LC-MS/MS analysis; assay type: ADME, organism-based; conditions: read-out: BPR
[42] = MRT in ICR mouse at 10 mg/kg, po measured up to 24 hrs by HPLC-MS/MS analysis; assay type: ADME, organism-based; conditions: in vivo
[43] = Clearance in ICR mouse at 3 mg/kg, iv measured up to 24 hrs by HPLC-MS/MS analysis; assay type: ADME, organism-based; conditions: in vivo
[44] = target: T1, Glutamate NMDA receptor (Mus musculus); assay: Positive allosteric modulation of C57BL/6 mouse NMDA receptor assessed as potentiation of NMDA-induced current by measuring peak current amplitude at 30 uM measured after 15 to 30 mins by patch-clamp method (reference value: 54.6 +/- 4.6 pA); assay type: tissue-based; conditions: Brain, filed as positive allosteric modulator, time 15-30 min

T2 sequence (Q12809 whole entry): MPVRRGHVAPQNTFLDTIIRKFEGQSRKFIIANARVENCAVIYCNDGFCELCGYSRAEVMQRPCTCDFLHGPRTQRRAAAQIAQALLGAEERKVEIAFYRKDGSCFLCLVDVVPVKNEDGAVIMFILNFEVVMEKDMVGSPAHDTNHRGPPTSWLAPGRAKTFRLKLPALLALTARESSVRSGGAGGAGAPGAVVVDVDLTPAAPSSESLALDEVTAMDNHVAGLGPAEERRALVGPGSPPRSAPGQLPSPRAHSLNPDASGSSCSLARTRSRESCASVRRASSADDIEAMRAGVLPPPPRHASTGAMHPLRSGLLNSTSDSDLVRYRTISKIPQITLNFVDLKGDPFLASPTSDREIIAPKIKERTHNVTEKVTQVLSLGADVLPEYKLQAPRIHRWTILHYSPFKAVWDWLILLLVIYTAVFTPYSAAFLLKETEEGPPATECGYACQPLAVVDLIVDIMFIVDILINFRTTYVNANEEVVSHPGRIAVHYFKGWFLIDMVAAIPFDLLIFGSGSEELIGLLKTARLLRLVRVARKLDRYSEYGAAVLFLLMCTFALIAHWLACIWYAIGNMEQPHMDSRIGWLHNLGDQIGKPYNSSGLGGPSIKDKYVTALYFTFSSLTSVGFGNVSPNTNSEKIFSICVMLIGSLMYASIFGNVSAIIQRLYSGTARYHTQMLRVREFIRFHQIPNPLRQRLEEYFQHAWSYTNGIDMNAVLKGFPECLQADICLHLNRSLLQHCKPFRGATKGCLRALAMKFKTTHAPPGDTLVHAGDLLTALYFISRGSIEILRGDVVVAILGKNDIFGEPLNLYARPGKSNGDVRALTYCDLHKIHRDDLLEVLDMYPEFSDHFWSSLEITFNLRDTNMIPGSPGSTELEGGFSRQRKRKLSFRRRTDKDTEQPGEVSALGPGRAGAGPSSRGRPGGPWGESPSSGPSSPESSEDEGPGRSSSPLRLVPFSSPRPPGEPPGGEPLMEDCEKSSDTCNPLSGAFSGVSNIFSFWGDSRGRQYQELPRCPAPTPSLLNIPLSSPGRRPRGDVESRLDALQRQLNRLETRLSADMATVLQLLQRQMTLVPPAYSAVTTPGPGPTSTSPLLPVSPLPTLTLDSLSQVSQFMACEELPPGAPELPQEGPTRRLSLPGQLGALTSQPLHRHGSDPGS

For `Cc1cc(C)n(Cc2ccc(C(=O)Nc3ccc(-c4cccnc4)cc3)s2)n1`, the inhibition at 48 h, 60 µM [1] was 6.5%, the Kp [2] was 0.398 and the fold change (FC) [3] was 14.3. For the same compound, the inhibition at 48 h, 60 µM [4] was 27.5%, the Activity [5] was “Non-Toxic” and the Activity (Mus musculus [6]) was “inactive”. It also gave an inhibition at 2 s, 100 µM (hERG (KCNH2) [7]) of 53.4%, an inhibition at 2 s, 30 µM (hERG (KCNH2) [8]) of 44.2% and a fold change (FC) [9] of 12.8. The pEC50 (Glutamate NMDA receptor) was 5.44, the inhibition at 48 h, 120 µM [10] was 18% and the inhibition at 48 h, 60 µM [11] was -3.8%. For the same compound, the Activity (Mus musculus [12]) was “Active”, the Activity (Mus musculus [13]) was “inactive” and the inhibition at 48 h, 120 µM [14] was -7.5%. The inhibition at 48 h, 120 µM [15] was 28.6% and the Activity [16] was “Non-Toxic”.
In the case of `O=C(Nc1cc(Cl)cc(Cl)c1)c1ccc(Cn2nc(C(F)(F)F)cc2C(F)(F)F)o1`, the concentration at 2 h [17] was 304 ng/mL, the inhibition at 48 h, 60 µM [1] was 42% and the pIC50 (HEK293) was 4.07. The Kp [2] was 3.98, the Activity [18] was “Non-Toxic” and the inhibition at 48 h, 60 µM [4] was 84.3%. For the same compound, the Activity [5] was “Non-Toxic”, the concentration at 0.5 h [19] was 93.4 ng/mL and the Activity (Mus musculus [6]) was “Active”. The Activity [20] was “Toxic”, the MRT [21] was 3.4 h and the concentration at 0.5 h [22] was 506 ng/mL. The half-life [23] was 5 h, the Tmax [24] was 2 h and the concentration at 0.5 h [25] was 73.9 ng/mL. It also gave an inhibition at 2 s, 100 µM (hERG (KCNH2) [7]) of 68.4%, an inhibition at 2 s, 30 µM (hERG (KCNH2) [8]) of 49.1% and an AUC(0-t) at 24 h [26] of 1750 ng·h/mL. For the same compound, the Kp at 0.5 h [27] was 0.16, the pEC50 (Glutamate NMDA receptor) was 4.90 and the Kp at 2 h [28] was 0.15. The pIC50 (L929) was 4.53, the LD50 at 24 h [29] was 1500 mg/kg and the Activity [30] was “Non-Toxic”. The inhibition at 48 h, 120 µM [10] was 73.6%, the Vd [31] was 12.7 L/kg and the concentration at 2 h [32] was 989 ng/mL. For the same compound, the inhibition at 48 h, 60 µM [11] was 96.2%, the concentration at 2 h [33] was 49 ng/mL and the half-life [34] was 5.7 h. The concentration at 2 h [35] was 148 ng/mL, the Activity (Mus musculus [12]) was “Active” and the Activity (Mus musculus [13]) was “inactive”. For the same compound, the concentration at 0.5 h [36] was 580 ng/mL, the AUC(0-t) at 24 h [37] was 4220 ng·h/mL and the bioavailability [38] was 72.2%. It also gave a pIC50 (Vero) of 4.63, a Kp at 2 h [39] of 0.16 and an inhibition at 48 h, 120 µM [14] of 95.8%. For the same compound, the Cmax [40] was 989 ng/mL, the inhibition at 48 h, 120 µM [15] was 90.6% and the Kp at 0.5 h [41] was 0.14. For the same compound, the MRT [42] was 4.7 h, the clearance [43] was 30 mL/min/kg and the Activity [16] was “Non-Toxic”.
With `O=C(Nc1ccc(Cl)cc1C(=O)NCCCCO)c1ccco1` the Kp [2] was 0.0776, the fold change (FC) [3] was 3.5 and the Activity [44] was 1320 pA.

Source: ChEMBL document CHEMBL4834434, “Discovery of Novel and Potent N-Methyl-d-aspartate Receptor Positive Allosteric Modulators with Antidepressant-like Activity in Rodent Models” (J Med Chem, 2021)
